For one assay, the target named is EGR-1 (Homo sapiens, UniProt P18146). Briefly: EGR-1 DNA binding activity assay (EDBA). The arrangement: made in house. The settings on record: EGR-1 DNA binding inhibitory activity; EGR-1 overexpressing cell lysate; absorbance at 450 nm; compound concentration not given. The procedure:
In this experiment, the inhibitory effect of the compounds of the present invention on EGR-1 binding activity was evaluated using an EGR-1 DNA binding activity assay (EDBA).
Single-stranded sense and antisense oligonucleotides of the following EGR-1 binding sequence (EBS) were prepared by outsourcing to Bioneer Co., Ltd. (Daejeon, Korea). In this case, the 5'-end of the sense oligonucleotide was labeled with biotin. The sense and antisense oligonucleotides were heated at 95 °C for 5 minutes and then left overnight at room temperature to hybridize the sense and antisense oligonucleotides. Hereinafter, the hybridized sense and antisense oligonucleotides are referred to as biotin-EBS. • Sense sequence: biotin-5'-[…]-3' • Antisense sequence: 5'-[…]-3'
Avidin protein was coated on a 96-well plate (purchased from Thermo Fisher Scientific), and biotin-EBS was added to the plate at a concentration of 0.5 pmol/50 µL/well, followed by reaction at 37 °C for 1 hour to allow biotin-EBS oligonucleotide to be attached to the plate. After washing three times with phosphate buffer saline containing 0.05% Tween 20 (PBS/Tween 20) to remove unattached biotin-EBS oligonucleotides, 200 µL of PBS/Tween 20 solution containing 2% bovine serum albumin (BSA) was added to each well, followed by reaction at 37 °C for 1 hour to block the surface of the plate where no oligonucleotide was attached.
The solution containing the sample compound and the EGR-1 protein was added to the biotin-EBS oligonucleotide coated plate prepared in step (2).
The compound sample (1 µL) was reacted with the EGR-1 overexpressing cell lysate containing 10 mM Tris, pH 7.5, 50 mM KCl, 2% BSA and 8% glycerol at room temperature for 30 minutes, and then added to a reaction well coated with biotin-EBS and further reacted at room temperature for one hour. After washing three times with PBS/Tween 20 solution, an EGR-1 antibody was added to the PBS solution supplemented with 2% BSA and 5 mM NaCl in an amount of 50 µL per each well. The mixture was incubated at room temperature for one hour, washed three times with PBS/Tween 20 solution, and then treated with horseradish peroxidase-conjugated secondary antibody (Goat anti-rabbit IgG antibody, Cell Signaling Technology company, Danvers, Mass., USA) diluted by 1:1000 at room temperature for one hour. After washing five times with PBS/Tween 20 solution, a substrate tetramethylbenzidine solution was added to each well in an amount of 50 µL. After reacting for 5 minutes, the reaction was stopped by adding 100 µL of 2 N sulfuric acid solution. The DNA binding inhibitory activity of EGR-1 was measured by absorbance at 450 nm according to Equation 1 below. EGR-1 DNA binding inhibitory activity (%) = 100−{(As/Ap)×100} [formula]
As: absorbance of a sample prepared by reacting an EGR-1-overexpressing cell lysate with the compound.
Ap: absorbance of the sample treated only with EGR-1-overexpressing cell lysate.

For assay [1], the system named is animal model of atopic dermatitis. Briefly: DNCB-induced animal model of atopic dermatitis, topical application. The settings on record: 0.1% applied to ear. The format is in vivo, BALB/c mice.

EGR-1, sequence (P18146 whole entry): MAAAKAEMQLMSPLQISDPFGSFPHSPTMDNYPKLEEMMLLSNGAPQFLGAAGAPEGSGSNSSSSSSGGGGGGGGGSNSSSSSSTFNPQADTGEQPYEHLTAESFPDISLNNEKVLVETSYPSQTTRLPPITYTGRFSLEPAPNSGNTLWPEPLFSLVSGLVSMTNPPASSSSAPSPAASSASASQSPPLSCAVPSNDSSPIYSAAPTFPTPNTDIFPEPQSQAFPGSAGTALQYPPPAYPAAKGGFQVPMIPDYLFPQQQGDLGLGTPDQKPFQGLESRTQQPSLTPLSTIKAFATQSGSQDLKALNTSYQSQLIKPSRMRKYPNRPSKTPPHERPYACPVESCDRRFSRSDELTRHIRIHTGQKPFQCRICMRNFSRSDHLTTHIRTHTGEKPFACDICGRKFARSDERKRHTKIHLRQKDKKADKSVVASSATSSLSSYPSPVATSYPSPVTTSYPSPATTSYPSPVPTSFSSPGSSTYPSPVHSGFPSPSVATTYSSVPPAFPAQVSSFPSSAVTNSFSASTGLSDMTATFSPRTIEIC

As to `O=C1Nc2cccc(Cl)c2/C1=N/NC(=S)Nc1ccccc1` [Compound 59, (Z)-2-(4-chloro-2-oxoindolin-3-ylidene)-N-phenylhydrazinethioamide], the “Inhibition Rate (%)” value at EGR-1 came to 40.17%.

For `O=C1Nc2cc(Cl)ccc2/C1=N/NC(=S)Nc1ccccc1` [Compound 60, (Z)-2-(6-chloro-2-oxoindolin-3-ylidene)-N-phenylhydrazinethioamide], the “Inhibition Rate (%)” value at EGR-1 turned out to be 48.07%. As for `COc1ccccc1NC(=S)N/N=C1\C(=O)Nc2cccc(Cl)c21` [Compound 61, (Z)-2-(4-chloro-2-oxoindolin-3-ylidene)-N-(2-methoxyphenyl)hydrazinethioamide], the “Inhibition Rate (%)” value at EGR-1 stood at 43.03%.

Take `O=C1Nc2ccc(F)cc2/C1=N/NC(=S)Nc1cccc(C(F)(F)F)c1` [Compound 62, (Z)-2-(5-fluoro-2-oxoindolin-3-ylidene)-N-(3-(trifluoromethyl)phenyl)hydrazinethioamide]: the “Inhibition Rate (%)” value at EGR-1 was found to be 10.00%. On the same count and under the same terms, the figure for `O=C1Nc2ccc(F)cc2/C1=N/NC(=S)NCc1ccccc1` [Compound 63, (Z)-N-benzyl-2-(5-fluoro-2-oxoindolin-3-ylidene)hydrazinethioamide] is 48.77%. The same measure, in the same setting: as for `Cc1cccc(NC(=S)N/N=C2\C(=O)Nc3ccc(F)cc32)c1` [Compound 64, (Z)-2-(5-fluoro-2-oxoindolin-3-ylidene)-N-(m-tolyl)hydrazinethioamide], the figure is 37.90%; as for `O=C1Nc2c(F)cccc2/C1=N/NC(=S)Nc1ccc([N+](=O)[O-])cc1` [Compound 65, (Z)-2-(7-fluoro-2-oxoindolin-3-ylidene)-N-(4-nitrophenyl)hydrazinethioamide], 43.03%; as for `COc1ccc2c(c1)NC(=O)/C2=N\NC(=S)Nc1cccc(C(F)(F)F)c1` [Compound 66, (Z)-2-(6-methoxy-2-oxoindolin-3-ylidene)-N-(3-(trifluoromethyl)phenyl)hydrazinethioamide], 11.70%.

Take `COc1ccc2c(c1)NC(=O)/C2=N\NC(=S)Nc1ccc(F)cc1` [Compound 67, (Z)-N-(4-fluorophenyl)-2-(6-methoxy-2-oxoindolin-3-ylidene)hydrazin-1-carbothioamide]: the “Inhibition Rate (%)” value on EGR-1 was determined as 25.90%. Still for that read-out and setting: as for `COc1ccc2c(c1)NC(=O)/C2=N\NC(=S)Nc1ccc(Br)cc1` [Compound 68, (Z)-N-(4-bromophenyl)-2-(6-methoxy-2-oxoindolin-3-ylidene)hydrazin-1-carbothioamide], the figure is 17.80%.

As to `COc1ccc2c(c1)NC(=O)/C2=N\NC(=S)NCc1ccccc1` [Compound 69, (Z)-N-benzyl-2-(6-methoxy-2-oxoindolin-3-ylidene)hydrazin-1-carbothioamide], at EGR-1, the “Inhibition Rate (%)” value was determined as 14.17%.

Take `Cc1ccc2c(c1)/C(=N/NC(=S)Nc1ccc(Br)cc1)C(=O)N2` [Compound 70, (Z)-N-(4-bromophenyl)-2-(5-methyl-2-oxoindolin-3-ylidene)hydrazinethioamide]: at EGR-1, the “Inhibition Rate (%)” value amounted to 29.60%. Same read-out and setting: as for `Cc1ccc2c(c1)/C(=N/NC(=S)Nc1ccc(C#N)cc1)C(=O)N2` [Compound 71, (Z)-N-(4-cyanophenyl)-2-(5-methyl-2-oxoindolin-3-ylidene)hydrazinethioamide], the figure is 29.93%; as for `Cc1ccc2c(c1)/C(=N/NC(=S)Nc1ccccc1)C(=O)N2` [Compound 72, (Z)-2-(5-methyl-2-oxoindolin-3-ylidene)-N-phenylhydrazinethioamide], 19.57%; as for `CCNC(=S)N/N=C1\C(=O)Nc2ccc(C)cc21` [Compound 73, (Z)-N-ethyl-2-(5-methyl-2-oxoindolin-3-ylidene)hydrazinethioamide], 29.80%. Regarding `Cc1ccc2c(c1)/C(=N/NC(=S)NCc1ccccc1)C(=O)N2` [Compound 74, (Z)-N-benzyl-2-(5-methyl-2-oxoindolin-3-ylidene)hydrazinethioamide], the “Inhibition Rate (%)” value on EGR-1 turned out to be 40.60%. On the same count and under the same terms, as for `Cc1cccc(NC(=S)N/N=C2\C(=O)Nc3ccc(C)cc32)c1` [Compound 75, (Z)-2-(5-methyl-2-oxoindolin-3-ylidene)-N-(m-tolyl)hydrazinethioamide], the figure is 39.27%; as for `O=C1Nc2ccc(OC(F)(F)F)cc2/C1=N/NC(=S)Nc1ccccc1` [Compound 76, (Z)-2-(2-oxo-5-(trifluoromethoxy)indolin-3-ylidene)-N-phenylhydrazinethioamide], 17.23%; as for `O=C1Nc2ccc(OC(F)(F)F)cc2/C1=N/NC(=S)Nc1cccc([N+](=O)[O-])c1` [Compound 77, (Z)-N-(3-nitrophenyl)-2-(2-oxo-5-(trifluoromethoxy)indolin-3-ylidene)hydrazinethioamide], 37.37%. On the same count and under the same terms, the figure for `O=C1Nc2ccc(OC(F)(F)F)cc2/C1=N/NC(=S)Nc1ccc(F)cc1` [Compound 78, (Z)-N-(4-fluorophenyl)-2-(2-oxo-5-(trifluoromethoxy)indolin-3-ylidene)hydrazinethioamide] is 33.93%; for `O=C1Nc2ccc(OC(F)(F)F)cc2/C1=N/NC(=S)Nc1ccc(Br)cc1` [Compound 79, (Z)-N-(4-bromophenyl)-2-(2-oxo-5-(trifluoromethoxy)indolin-3-ylidene)hydrazinethioamide] it is 42.27%.

`C[C@@H]1CCN(C(=O)CC#N)C[C@@H]1N(C)c1ncnc2[nH]ccc12` [tofacitinib, Tofacitinib, reference compound] gave an epidermal thickness in assay [1] (day 22, H&E staining, normal 24.47±2.353, DNCB only 37.27±4.393) of 27.09±1.719 µm. The compound also showed a dermal thickness in assay [1] (day 22, H&E staining, normal 143.2±19.61, DNCB only 197.5±17.83) of 154.5±11.32 µm. Also, the expression of filaggrin result in assay [1] (immunofluorescence of skin tissue, FIG. 17B) is listed as “recovered to a level similar to normal tissue”. For the same compound, in assay [1] (immunofluorescence of skin tissue, compared to positive control group, FIG. 17A), the “expression of TSLP” value is recorded as “significantly decreased”. The “expression of MPO (neutrophil marker)” value in assay [1] (immunohistochemistry, FIG. 16C) is given as “decreased similar to normal tissue”. For the same compound, the “expression of F4/80 (macrophage marker)” value in assay [1] (immunohistochemistry, FIG. 16D) is reported as “decreased similar to normal tissue”. In assay [1] (toluidine blue staining, compared to the positive control group, FIG. 16A), the mast cell infiltration result is reported as “significantly reduced”. In assay [1] (toluidine blue staining, normal 11±3, DNCB 38±6), the “number of mast cells infiltrated” value is 14±5 per 2.5 cm^2.

(Values after patent publication EP4799619A1, “COMPOUND TARGETING EGR-1 AND USE THEREOF FOR TREATMENT OF ATOPIC DERMATITIS” (AgeraMedi, Inc., priority 2023, dated 2025).)
